The record followed here is ChEMBL document CHEMBL1201862, “PubChem BioAssay data set” (2004).

What all share (assay): NCI anticancer screen, dose series, 48 h
For test [1], the system named is BT-549.
Test [2] has as its system CCRF-CEM.
In test [3] the test system is HCC 2998.
The subject of test [4] is HCT-116.
Test [5] has as its system HCT-15.
Test [6] has as its system HOP-62.
In test [7] the test system is HT-29.
The test system of test [8] is IGROV-1.
Test [9] has as its system MDA-MB-231.
Test [10] has as its system MDA-MB-435.
For test [11], the system named is NCI-H23.
In test [12] the test system is NCI-H522.
The subject of test [13] is NCI/ADR-RES.
For test [14], the system named is OVCAR-3.
Test [15] has as its system OVCAR-4.
The test system of test [16] is OVCAR-5.
Test [17] relates to RPMI-8226.
The subject of test [18] is SNB-19.

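Following 48 hours of exposure in 96-well plates, responses at five concentrations were used to interpolate endpoints linearly. GI50: concentration for 50% inhibition of growth.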 The source made the active and inactive calls. Cut-off read from the data, not from the text of the source: active = GI50 up to about 1.1 µM and inactive = higher.

For `CCN(CC)CCNc1ccc2ncn3c4c(OC)ccc(O)c4c(=O)c1c23`, the GI50 in [1] was 37.3 µM (inactive); in [2], 4.12 µM (inactive); in test [3], 5.25 µM (inactive); in test [4], 1.16 µM (inactive); in test [5], 3.63 µM; in test [6], 15.4 µM (inactive). The GI50 in test [7] is 7.4 µM (inactive); in test [8], 5.56 µM (inactive); in test [9], 13.7 µM (inactive); in test [10], 24.9 µM (inactive); in test [11], 21.8 µM (inactive); in test [12], 1.41 µM (inactive). Besides, the GI50 in test [13] was 2.54 µM (inactive); in test [14], 31.2 µM (inactive); in [15], 6.21 µM (inactive); in test [16], 42.4 µM (inactive); in [17] it was 4.21 µM (inactive); in test [18], 19.6 µM (inactive).
With `CN(C)CCNCCCNc1c2ccccc2nc2cccc([N+](=O)[O-])c12`, the GI50 in [1] is 0.157 µM (active); in test [2], < 0.0121 µM (active); in test [3], < 0.0126 µM (active); in test [4], < 0.0161 µM (active); in test [5] it was 0.0826 µM; in test [6], 0.0288 µM (active). The GI50 in [7] was < 0.0125 µM (active); in test [8] it was < 0.0205 µM (active); in [9] it was < 0.0129 µM (active); in [10] it was < 0.0144 µM (active); in [11], < 0.0121 µM (active); in test [12], < 0.01 µM (active). In addition, the GI50 in [13] is 0.91 µM (active); in [14] it was < 0.0157 µM (active); in [15], < 0.0129 µM (active); in test [16] it was < 0.0148 µM (active); in test [17], < 0.0138 µM (active); in test [18], 0.0298 µM (active).
On to `COC(=O)c1c(C#N)c(N)nc2c1CCC2`, for which the GI50 in [1] was > 100 µM (inactive); in test [2], 99.8 µM (inactive); in test [3], > 100 µM (inactive); in test [4], > 100 µM (inactive); in test [5] it was more than 100 µM; in test [6], > 100 µM (inactive). The GI50 in test [7], in test [8], in [9], in [10], in [11] and in test [12] was > 100 µM (inactive) each time. The GI50 is > 100 µM (inactive) in test [13]; 93.3 µM (inactive) in test [15]; > 100 µM (inactive) in test [16]; > 100 µM (inactive) in test [17]; > 100 µM (inactive) in test [18].
As for `S=C1NCN2CCN(CC2)CNC(=S)C(=S)NCN2CCN(CC2)CNC1=S`, the GI50 in test [1] was 59 µM (inactive); in test [2] it was 18.5 µM (inactive); in test [3] it was 78.5 µM (inactive); in test [4], 79.4 µM (inactive); in test [5], 31.3 µM; in test [6], 37.9 µM (inactive). The GI50 in [7] is 85.5 µM (inactive); in test [8], 64.3 µM (inactive); in test [9] it was > 100 µM (inactive); in test [10] it was 39.8 µM (inactive); in test [11] it was 43 µM (inactive); in test [12], 31 µM (inactive). Besides, the GI50 in test [13] was 67.5 µM (inactive); in test [14] it was 22 µM (inactive); in [15], > 100 µM (inactive); in [16], > 100 µM (inactive); in test [17], 23.7 µM (inactive); in [18], 41.1 µM (inactive).
As to `COc1cc(NCCC2CCCCN2)c2ncccc2c1` (configuration not stated), the GI50 is > 100 µM (inactive) in test [1]; 25.1 µM (inactive) in test [2]; 16.4 µM (inactive) in test [3]; 36 µM (inactive) in [4]; more than 74.3 µM in test [5]; > 96.4 µM (inactive) in test [6]. The GI50 in [7] was 41.7 µM (inactive); in test [8], 8.87 µM (inactive); in test [9] it was 34.8 µM (inactive); in [10], 26.4 µM (inactive); in [11], > 100 µM (inactive); in test [12], 55.7 µM (inactive). Further, the GI50 is > 100 µM (inactive) in [13]; 4.63 µM (inactive) in test [14]; > 70.5 µM (inactive) in [15]; > 100 µM (inactive) in test [16]; > 48.3 µM (inactive) in test [17]; > 100 µM (inactive) in [18].
On to `CCOC(=O)C1CCCCN1C(=O)Cc1c[nH]c2ccccc12` (configuration not stated), for which the GI50 in [1] is 94.8 µM (inactive); in [2] it was 42.5 µM (inactive); in [3], 77.8 µM (inactive); in test [4], > 100 µM (inactive); in test [5], 87.7 µM; in [6] it was 87.9 µM (inactive). For the same molecule, the GI50 in [7] is 72.9 µM (inactive); in test [8], 57.7 µM (inactive); in test [9] it was 79.6 µM (inactive); in [10], 34.4 µM (inactive); in test [11] it was 80.2 µM (inactive); in test [12] it was 31.4 µM (inactive). For the same molecule, the GI50 in test [13] was 69.7 µM (inactive); in [14] it was 52.6 µM (inactive); in test [15] it was 33.9 µM (inactive); in test [16], > 100 µM (inactive); in test [17], 20 µM (inactive); in [18], > 100 µM (inactive).
For `CN(C)C(Cc1c[nH]cn1)C(=O)N1CCCC1C(N)=O` (configuration not stated), the GI50 in test [1] is > 100 µM (inactive); in test [2] it was > 100 µM (inactive); in test [3], > 100 µM (inactive); in test [4], > 100 µM (inactive); in [5], more than 100 µM; in test [6], > 100 µM (inactive). The GI50 in [7], in test [8], in test [9], in [10], in test [11] and in test [12] was > 100 µM (inactive) each time. For the same molecule, the GI50 in test [13], in test [14], in test [15], in test [16], in test [17] and in test [18] was > 100 µM (inactive) in each case.
`O=c1[nH]c(=O)n(C2OC(CO)C(O)C2O)c2ccsc12` (configuration not stated): the GI50 in test [1] was > 100 µM (inactive); in [2] it was > 100 µM (inactive); in [3] it was > 100 µM (inactive); in [4], > 100 µM (inactive); in [5], more than 100 µM; in test [6] it was > 100 µM (inactive). Also, the GI50 in test [7], in test [8], in test [9], in test [10], in test [11] and in [12] was > 100 µM (inactive) throughout. The GI50 in test [13], in [14], in test [15], in test [16] and in test [17] was > 100 µM (inactive) throughout.
